Laboratory results from patent US11214594B2, “Antimicrobial peptide having synergistic antibacterial effect with antibiotics on multidrug resistant bacteria, and use thereof” (priority 2016, dated 2022).
Like-named read-outs stand apart in the source and are kept apart here. Where a SMILES comes first, the peptide text is derived from it. [ ]: non-standard residue; d: D form.

Tests used:
A. baumannii [1] = assay: MIC of antibiotic during combined treatment with antimicrobial peptide; assay type: cell-based, Acinetobacter baumannii; conditions: A. baumannii
How it was run: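 First, antibiotic solution is diluted with MH medium; next, the dilution is dispensed into wells containing peptide; finally, the orientation is swapped and MIC of each mixture determined.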

E. coli = assay type: cell-based, Escherichia coli; conditions: E. coli
How it was run: (§1)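 Broth microdilution in MH medium; strains were diluted to 2×10^6 CFU per ml before plating. Peptide was serially diluted stepwise at 2:1 starting from its MIC, and MH-diluted antibiotic was then added to determine MIC. The reversed arrangement was also tested.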

MDREC 1229 = assay type: cell-based, Escherichia coli
How it was run: as §1

A. baumannii [2] = assay: MIC of antimicrobial peptide during combined treatment with antibiotic; assay type: cell-based, Acinetobacter baumannii
How it was run: as §1

MDRAB 12035 = assay: as above; assay type: cell-based, Acinetobacter baumannii
How it was run: as §1

[3] = combined with peptide at 2 μg/ml
[4] = combined with peptide at 4 μg/ml
[5] = combined with peptide at 6 μg/ml
[6] = combined with peptide at 8 μg/ml
[7] = combined with peptide at 16 μg/ml
[8] = combined with peptide at 32 μg/ml
[9] = combined with peptide at 64 μg/ml
[10] = linezolid 64 μg/ml (Conc./MIC 1/8)
[11] = linezolid 512 μg/ml (Conc./MIC 1)
[12] = vancomycin 512 μg/ml (Conc./MIC 1/2)
[13] = vancomycin 1024 μg/ml (Conc./MIC 1)
[14] = erythromycin 4 μg/ml (Conc./MIC 1/8)
[15] = erythromycin 8 μg/ml (Conc./MIC 1/4)
[16] = erythromycin 16 μg/ml (Conc./MIC 1/2)
[17] = erythromycin 32 μg/ml (Conc./MIC 1)

## CC[C@H](C)[C@H](NC(=O)[C@H](CCCCN)NC(=O)[C@H](Cc1c[nH]c2ccccc12)NC(=O)[C@@H](N)CCCNC(=N)N)C(=O)N[C@@H](Cc1ccccc1)C(=O)N[C@@H](CCCCN)C(=O)N[C@@H](CCCCN)C(=O)N[C@H](C(=O)N[C@H](CCCCN)C(=O)N[C@@H](CCCCN)C(=O)N[C@@H](CC(C)C)C(=O)N[C@@H](CC(C)C)C(=O)N[C@@H](Cc1c[nH]cn1)C(=O)N[C@@H](CCCCN)C(=O)N[C@@H](C)C(=O)N[C@@H](CCCCN)C(=O)N[C@@H](CCCCN)C(=O)N[C@@H](Cc1c[nH]c2ccccc12)C(N)=O)[C@@H](C)CC [PapMA-18, RWK IFK KIk KLL HKA KKW-NH2] (H-RWKIFKKI[dK]KLLHKAKKW-NH2; N-terminus assumed)
A. baumannii [1]; [3]
  Antibiotic MIC, Erythromycin: 32 µg/mL
  Antibiotic MIC, Linezolid: 128 µg/mL
  Antibiotic MIC, Vancomycin: >128 µg/mL
A. baumannii [1]; [4]
  Antibiotic MIC, Erythromycin: 16 µg/mL
  Antibiotic MIC, Linezolid: 64 µg/mL
  Antibiotic MIC, Vancomycin: 128 µg/mL
A. baumannii [1]; [5]
  Antibiotic MIC, Erythromycin: 2 µg/mL
  Antibiotic MIC, Linezolid: 32 µg/mL
  Antibiotic MIC, Vancomycin: 32 µg/mL
A. baumannii [1]; [6]
  Antibiotic MIC, Erythromycin: 1 µg/mL
  Antibiotic MIC, Linezolid: 16 µg/mL
  Antibiotic MIC, Vancomycin: 16 µg/mL
A. baumannii [1]; [7]
  Antibiotic MIC, Erythromycin: 0.5 µg/mL
  Antibiotic MIC, Linezolid: 4 µg/mL
  Antibiotic MIC, Vancomycin: 16 µg/mL
A. baumannii [1]; [8]
  Antibiotic MIC, Erythromycin: 0 µg/mL
  Antibiotic MIC, Linezolid: 0 µg/mL
  Antibiotic MIC, Vancomycin: 0 µg/mL
A. baumannii [1]; [9]
  Antibiotic MIC, Erythromycin: 0 µg/mL
  Antibiotic MIC, Linezolid: 0 µg/mL
  Antibiotic MIC, Vancomycin: 0 µg/mL
E. coli; with Erythromycin […] (Conc./MIC 1)
  Peptide MIC: 0 µg/mL
E. coli; with Linezolid […] (Conc./MIC 1)
  Peptide MIC: 0 µg/mL
E. coli; with Vancomycin 1024 μg/ml (Conc./MIC 1)
  Peptide MIC: 0 µg/mL
MDREC 1229; erythromycin 32 μg/ml (Conc./MIC 1/8)
  Peptide MIC during treatment with antibiotic: 2 µg/mL
MDREC 1229; erythromycin 64 μg/ml (Conc./MIC 1/4)
  Peptide MIC during treatment with antibiotic: 2 µg/mL
MDREC 1229; erythromycin […] (Conc./MIC 1)
  Peptide MIC during treatment with antibiotic: 0 µg/mL
MDREC 1229; erythromycin […] (Conc./MIC 1/2)
  Peptide MIC during treatment with antibiotic: 2 µg/mL
MDREC 1229; [10]
  Peptide MIC during treatment with antibiotic: 4 µg/mL
MDREC 1229; [11]
  Peptide MIC during treatment with antibiotic: 0 µg/mL
MDREC 1229; linezolid […] (Conc./MIC 1/2)
  Peptide MIC during treatment with antibiotic: 1 µg/mL
MDREC 1229; linezolid […] (Conc./MIC 1/4)
  Peptide MIC during treatment with antibiotic: 4 µg/mL
MDREC 1229; [12]
  Peptide MIC during treatment with antibiotic: 2 µg/mL
MDREC 1229; [13]
  Peptide MIC during treatment with antibiotic: 1 µg/mL
MDREC 1229; vancomycin […] (Conc./MIC 1/4)
  Peptide MIC during treatment with antibiotic: 4 µg/mL
MDREC 1229; vancomycin […] (Conc./MIC 1/8)
  Peptide MIC during treatment with antibiotic: 8 µg/mL
A. baumannii [2]; [14]
  Peptide MIC during treatment with antibiotic: 4 µg/mL
A. baumannii [2]; [15]
  Peptide MIC during treatment with antibiotic: 4 µg/mL
A. baumannii [2]; [16]
  Peptide MIC during treatment with antibiotic: 4 µg/mL
A. baumannii [2]; [17]
  Peptide MIC during treatment with antibiotic: 0 µg/mL
A. baumannii [2]; linezolid 32 μg/ml (Conc./MIC 1/8)
  Peptide MIC during treatment with antibiotic: 8 µg/mL
A. baumannii [2]; linezolid 64 μg/ml (Conc./MIC 1/4)
  Peptide MIC during treatment with antibiotic: 4 µg/mL
A. baumannii [2]; linezolid […] (Conc./MIC 1)
  Peptide MIC during treatment with antibiotic: 0 µg/mL
A. baumannii [2]; linezolid […] (Conc./MIC 1/2)
  Peptide MIC during treatment with antibiotic: 2 µg/mL
A. baumannii [2]; [12]
  Peptide MIC during treatment with antibiotic: 0.25 µg/mL
A. baumannii [2]; [13]
  Peptide MIC during treatment with antibiotic: 0 µg/mL
A. baumannii [2]; vancomycin […] (Conc./MIC 1/4)
  Peptide MIC during treatment with antibiotic: 0.5 µg/mL
A. baumannii [2]; vancomycin […] (Conc./MIC 1/8)
  Peptide MIC during treatment with antibiotic: 4 µg/mL
MDRAB 12035; [14]
  Peptide MIC during treatment with erythromycin: 4 µg/mL
MDRAB 12035; [15]
  Peptide MIC during treatment with erythromycin: 4 µg/mL
MDRAB 12035; [16]
  Peptide MIC during treatment with erythromycin: 4 µg/mL
MDRAB 12035; [17]
  Peptide MIC during treatment with erythromycin: 0 µg/mL
MDRAB 12035; [10]
  Peptide MIC during treatment with linezolid: 4 µg/mL
MDRAB 12035; [11]
  Peptide MIC during treatment with linezolid: 0 µg/mL
MDRAB 12035; linezolid […] (Conc./MIC 1/2)
  Peptide MIC during treatment with linezolid: 1 µg/mL
MDRAB 12035; linezolid […] (Conc./MIC 1/4)
  Peptide MIC during treatment with linezolid: 4 µg/mL
MDRAB 12035; [12]
  Peptide MIC during treatment with vancomycin: 2 µg/mL
MDRAB 12035; [13]
  Peptide MIC during treatment with vancomycin: 1 µg/mL
MDRAB 12035; vancomycin […] (Conc./MIC 1/4)
  Peptide MIC during treatment with vancomycin: 4 µg/mL
MDRAB 12035; vancomycin […] (Conc./MIC 1/8)
  Peptide MIC during treatment with vancomycin: 4 µg/mL
